Experimental data reported in patent publication US8962596B2 (Array BioPharma Inc., priority 2010, dated 2015).

Assays:
Assay type in all cases: biochemical
Human Tyk2 kinase domain = target: T1, Human Tyk2 kinase domain (Homo sapiens, UniProt P29597); assay: Tyk2 Inhibition Assay (Omnia kinase fluorescence peptide substrate assay); conditions: averaged IC50 ranges; assay of Example A; 10 μM (Km app) or 1 mM ATP, 2 nM Tyk2
T1 construct: comprising amino acids 886 to 1187 with 10 additional histidine residues; 10xHis (histidine tag) (C, cleaved yes); made in house
T1 sequence (P29597 886-1187): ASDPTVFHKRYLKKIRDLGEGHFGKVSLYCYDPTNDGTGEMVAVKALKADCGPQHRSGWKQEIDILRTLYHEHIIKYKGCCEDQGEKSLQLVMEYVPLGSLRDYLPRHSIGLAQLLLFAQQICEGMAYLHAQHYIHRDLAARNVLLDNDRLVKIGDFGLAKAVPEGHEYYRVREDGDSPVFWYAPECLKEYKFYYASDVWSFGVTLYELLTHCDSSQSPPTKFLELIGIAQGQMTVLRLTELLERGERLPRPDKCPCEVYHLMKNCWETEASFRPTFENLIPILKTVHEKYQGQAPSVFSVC
Procedure, shortened: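 2 nM His-tag-cleaved kinase domain (aa 886–1187) with 8 μM Omnia Y12 peptide, 10 μM (Km app) or 1 mM ATP, pH 7.4 HEPES/10 mM MgCl2, 2% DMSO. Fluorescence (ex 360/em 485 nm) every 50 s for 45 min; IC50 from 4-parameter fit of POC, top dose 10 μM.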

JAK1 = target: T2, JAK1 (Homo sapiens, UniProt P23458); assay: JAK1 Inhibition Assay (Omnia kinase fluorescence peptide substrate assay); conditions: averaged IC50 ranges; assay of Example B; 40 μM (Km app) or 1 mM ATP, 15 nM JAK1
T2 construct: purchased Invitrogen Corporation, Carlsbad, Calif; PV4775

JAK2 = target: T3, JAK2 (Homo sapiens, UniProt O60674); assay: JAK2 Inhibition Assay (Omnia kinase fluorescence peptide substrate assay); conditions: averaged IC50 ranges; assay of Example C; 25 μM (Km app) or 1 mM ATP, 5 nM JAK2
T3 construct: purchased Invitrogen Corporation, Carlsbad, Calif; PV4288
Procedure, shortened: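 5 nM JAK2 phosphorylated 10 μM Omnia Y7 peptide with ATP at 25 μM (Km app) or 1 mM, in 25 mM HEPES pH 7.4, 10 mM MgCl2, 0.01% Triton X-100, 1 mM DTT, 2% DMSO. Fluorescence (360/485 nm) was read every 50 s for 45 min. 10-point 3-fold series from 10 μM; POC versus uninhibited and background controls, 4-parameter logistic IC50.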

JAK3 = target: T4, JAK3 (Homo sapiens, UniProt P52333); assay: JAK3 Inhibition Assay (Omnia kinase fluorescence peptide substrate assay); conditions: averaged IC50 ranges; assay of Example D; 10 μM (Km app) or 1 mM ATP, 2.5 nM JAK3
T4 construct: purchased Invitrogen Corporation, Carlsbad, Calif; PV4080
T4 sequence (P52333 1-1124): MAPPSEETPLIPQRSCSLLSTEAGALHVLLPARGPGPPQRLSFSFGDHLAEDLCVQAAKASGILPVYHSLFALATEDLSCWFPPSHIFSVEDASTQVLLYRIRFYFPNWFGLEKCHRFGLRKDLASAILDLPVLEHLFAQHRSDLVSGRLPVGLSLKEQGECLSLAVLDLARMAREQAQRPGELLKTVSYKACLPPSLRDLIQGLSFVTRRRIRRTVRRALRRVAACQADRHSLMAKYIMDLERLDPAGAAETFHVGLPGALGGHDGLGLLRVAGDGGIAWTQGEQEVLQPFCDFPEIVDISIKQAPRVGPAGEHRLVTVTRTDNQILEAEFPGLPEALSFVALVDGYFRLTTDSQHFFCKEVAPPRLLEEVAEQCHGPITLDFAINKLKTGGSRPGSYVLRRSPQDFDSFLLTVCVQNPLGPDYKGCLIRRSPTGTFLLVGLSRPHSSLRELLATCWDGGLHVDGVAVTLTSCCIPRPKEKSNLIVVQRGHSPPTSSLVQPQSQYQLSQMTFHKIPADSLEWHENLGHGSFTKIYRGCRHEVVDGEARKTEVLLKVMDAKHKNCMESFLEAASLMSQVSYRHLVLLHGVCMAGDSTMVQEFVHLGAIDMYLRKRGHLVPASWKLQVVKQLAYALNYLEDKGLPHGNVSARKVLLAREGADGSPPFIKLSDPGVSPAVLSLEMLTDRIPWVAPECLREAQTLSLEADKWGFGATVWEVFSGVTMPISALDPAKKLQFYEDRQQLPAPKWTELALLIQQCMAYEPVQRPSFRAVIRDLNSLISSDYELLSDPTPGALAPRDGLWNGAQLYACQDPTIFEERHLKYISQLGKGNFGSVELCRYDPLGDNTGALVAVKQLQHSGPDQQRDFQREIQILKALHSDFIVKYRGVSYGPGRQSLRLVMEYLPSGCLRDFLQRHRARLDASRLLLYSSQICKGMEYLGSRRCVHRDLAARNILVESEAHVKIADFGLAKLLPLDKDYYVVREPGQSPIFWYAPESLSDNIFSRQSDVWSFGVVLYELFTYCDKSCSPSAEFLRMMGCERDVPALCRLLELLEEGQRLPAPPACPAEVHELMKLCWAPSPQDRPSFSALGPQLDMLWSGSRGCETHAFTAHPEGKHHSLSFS
Procedure, shortened: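 Kinase at 2.5 nM with 10 µM Omnia Y7 peptide and 10 µM (Km app) or 1 mM ATP in 25 mM HEPES pH 7.4, 10 mM MgCl2, 1 mM DTT, 0.01% Triton X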

T3 sequence (O60674 whole entry): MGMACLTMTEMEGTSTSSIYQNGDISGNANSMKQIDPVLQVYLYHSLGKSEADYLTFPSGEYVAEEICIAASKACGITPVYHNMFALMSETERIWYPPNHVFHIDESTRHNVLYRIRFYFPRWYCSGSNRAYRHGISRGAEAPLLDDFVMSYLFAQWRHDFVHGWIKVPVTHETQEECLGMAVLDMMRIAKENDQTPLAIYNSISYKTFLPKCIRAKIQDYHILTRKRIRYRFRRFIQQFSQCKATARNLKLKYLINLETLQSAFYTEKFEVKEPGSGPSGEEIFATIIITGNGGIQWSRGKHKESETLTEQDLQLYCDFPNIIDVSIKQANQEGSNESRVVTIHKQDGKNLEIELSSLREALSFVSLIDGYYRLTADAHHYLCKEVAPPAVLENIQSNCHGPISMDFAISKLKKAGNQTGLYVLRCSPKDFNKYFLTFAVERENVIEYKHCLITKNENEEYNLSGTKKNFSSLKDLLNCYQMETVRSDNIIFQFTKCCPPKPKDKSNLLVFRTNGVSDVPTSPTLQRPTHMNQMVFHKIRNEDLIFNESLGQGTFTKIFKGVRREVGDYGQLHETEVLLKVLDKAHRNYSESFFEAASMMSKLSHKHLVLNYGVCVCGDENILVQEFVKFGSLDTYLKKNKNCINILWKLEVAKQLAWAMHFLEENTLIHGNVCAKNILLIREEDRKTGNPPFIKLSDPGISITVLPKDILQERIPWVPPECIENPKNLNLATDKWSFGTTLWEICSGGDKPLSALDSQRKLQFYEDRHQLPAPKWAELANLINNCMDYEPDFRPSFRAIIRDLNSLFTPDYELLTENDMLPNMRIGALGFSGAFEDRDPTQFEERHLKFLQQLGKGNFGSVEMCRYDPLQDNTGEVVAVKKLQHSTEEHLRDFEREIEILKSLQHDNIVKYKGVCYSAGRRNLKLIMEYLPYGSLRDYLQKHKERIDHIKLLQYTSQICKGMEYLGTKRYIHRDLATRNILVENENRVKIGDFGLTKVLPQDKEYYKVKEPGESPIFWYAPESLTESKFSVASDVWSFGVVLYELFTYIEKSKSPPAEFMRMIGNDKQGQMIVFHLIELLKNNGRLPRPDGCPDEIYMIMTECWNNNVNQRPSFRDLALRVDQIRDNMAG
T2 sequence (P23458 whole entry): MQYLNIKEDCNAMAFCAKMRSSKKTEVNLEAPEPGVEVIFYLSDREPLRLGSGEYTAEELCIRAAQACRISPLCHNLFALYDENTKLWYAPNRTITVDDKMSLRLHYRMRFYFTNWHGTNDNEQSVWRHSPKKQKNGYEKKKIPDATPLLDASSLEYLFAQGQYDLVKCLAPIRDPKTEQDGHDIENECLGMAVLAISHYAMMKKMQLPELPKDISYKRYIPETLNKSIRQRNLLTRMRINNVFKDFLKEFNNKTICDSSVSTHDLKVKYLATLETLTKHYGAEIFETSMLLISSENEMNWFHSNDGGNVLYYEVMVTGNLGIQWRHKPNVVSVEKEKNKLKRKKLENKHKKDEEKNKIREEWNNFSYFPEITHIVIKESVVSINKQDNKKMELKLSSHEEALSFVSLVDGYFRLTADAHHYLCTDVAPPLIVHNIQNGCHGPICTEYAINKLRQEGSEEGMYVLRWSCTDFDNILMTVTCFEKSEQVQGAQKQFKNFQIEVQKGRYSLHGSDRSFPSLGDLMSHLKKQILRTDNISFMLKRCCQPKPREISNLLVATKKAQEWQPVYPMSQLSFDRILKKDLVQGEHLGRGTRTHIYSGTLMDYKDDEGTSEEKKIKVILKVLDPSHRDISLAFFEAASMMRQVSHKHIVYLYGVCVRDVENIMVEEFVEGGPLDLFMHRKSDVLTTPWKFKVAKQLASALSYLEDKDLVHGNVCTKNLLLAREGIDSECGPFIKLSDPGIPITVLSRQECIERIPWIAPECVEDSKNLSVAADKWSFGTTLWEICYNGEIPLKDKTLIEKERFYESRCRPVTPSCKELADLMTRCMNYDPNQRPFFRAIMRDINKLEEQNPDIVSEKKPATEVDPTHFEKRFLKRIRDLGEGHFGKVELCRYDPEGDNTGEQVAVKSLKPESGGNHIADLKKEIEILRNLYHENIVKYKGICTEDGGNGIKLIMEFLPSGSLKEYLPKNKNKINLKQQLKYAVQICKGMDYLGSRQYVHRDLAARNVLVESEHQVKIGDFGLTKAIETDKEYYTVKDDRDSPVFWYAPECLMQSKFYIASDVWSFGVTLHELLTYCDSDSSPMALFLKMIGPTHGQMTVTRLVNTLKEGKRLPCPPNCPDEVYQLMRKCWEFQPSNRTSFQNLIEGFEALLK

## Cn1cc(-c2cc3nccn3c(-c3cnn(C4(CC#N)CN(CC5CCOCC5)C4)c3)n2)cn1 [Example 89, 2-(3-(4-(7-(1-methyl-1H-pyrazol-4-yl)imidazo[1,2-c]pyrimidin-5-yl)-1H-pyrazol-1-yl)-1-((tetrahydro-2H-pyran-4-yl)methyl)azetidin-3-yl)acetonitrile]
Human Tyk2 kinase domain
  IC50: 100 to 1000 nM
JAK1
  IC50: > 1000 nM
JAK2
  IC50: > 1000 nM
JAK3
  IC50: > 1000 nM

## Cn1cc(-c2cc3nccn3c(-c3cnn(C(C)(CC#N)c4ccccc4)c3)n2)cn1 (centres unmarked) [Example 16, 3-(4-(7-(1-methyl-1H-pyrazol-4-yl)imidazo[1,2-c]pyrimidin-5-yl)-1H-pyrazol-1-yl)-3-phenylbutanenitrile]
Human Tyk2 kinase domain
  IC50: 100 to 1000 nM
JAK1
  IC50: > 1000 nM
JAK2
  IC50: 100 to 1000 nM
JAK3
  IC50: > 1000 nM

## CCCN1CC(CC#N)(n2cc(-c3nc(-c4cnn(C)c4)cc4nccn34)cn2)C1 [Example 81, 2-(3-(4-(7-(1-methyl-1H-pyrazol-4-yl)imidazo[1,2-c]pyrimidin-5-yl)-1H-pyrazol-1-yl)-1-propylazetidin-3-yl)acetonitrile]
Human Tyk2 kinase domain
  IC50: 10 to 100 nM
JAK1
  IC50: 100 to 1000 nM
JAK2
  IC50: 100 to 1000 nM
JAK3
  IC50: > 1000 nM

## Cc1c(-c2nc(-c3cnn(C)c3)cc3nccn23)cnn1CCC#N [Example 107, 3-(5-methyl-4-(7-(1-methyl-1H-pyrazol-4-yl)imidazo[1,2-c]pyrimidin-5-yl)-1H-pyrazol-1-yl)propanenitrile]
Human Tyk2 kinase domain
  IC50: 100 to 1000 nM
JAK1
  IC50: > 1000 nM
JAK2
  IC50: > 1000 nM
JAK3
  IC50: > 1000 nM

## Cn1cc(-c2cc3nccn3c(-c3cnn(C4(CC#N)CN(S(=O)(=O)c5ccccc5)C4)c3)n2)cn1 [Example 99, 2-(3-(4-(7-(1-methyl-1H-pyrazol-4-yl)imidazo[1,2-c]pyrimidin-5-yl)-1H-pyrazol-1-yl)-1-(phenylsulfonyl)azetidin-3-yl)acetonitrile]
Human Tyk2 kinase domain
  IC50: 10 to 100 nM
JAK1
  IC50: 100 to 1000 nM
JAK2
  IC50: 100 to 1000 nM
JAK3
  IC50: > 1000 nM

## CC(C)N1CC(CC#N)(n2cc(-c3nc(-c4cnn(C)c4)cc4nccn34)cn2)C1 [Example 82, 2-(1-isopropyl-3-(4-(7-(1-methyl-1H-pyrazol-4-yl)imidazo[1,2-c]pyrimidin-5-yl)-1H-pyrazol-1-yl)azetidin-3-yl)acetonitrile]
Human Tyk2 kinase domain
  IC50: 10 to 100 nM
JAK1
  IC50: > 1000 nM
JAK2
  IC50: 100 to 1000 nM
JAK3
  IC50: > 1000 nM

## COc1ncc(-c2cc3nccn3c(-c3cnn(C4(CC#N)CN(S(=O)(=O)C(F)(F)F)C4)c3)n2)cn1 [Example 142, 2-(3-(4-(7-(2-methoxypyrimidin-5-yl)imidazo[1,2-c]pyrimidin-5-yl)-1H-pyrazol-1-yl)-1-(trifluoromethylsulfonyl)azetidin-3-yl)acetonitrile]
Human Tyk2 kinase domain
  IC50: 10 to 100 nM
JAK1
  IC50: > 1000 nM
JAK2
  IC50: > 1000 nM
JAK3
  IC50: > 1000 nM

## Cn1cc(-c2cc3nccn3c(-c3ccn(C(CC#N)C4CC4)n3)n2)cn1 (centres unmarked) [Example 132, 3-Cyclopropyl-3-(3-(7-(1-methyl-1H-pyrazol-4-yl)imidazo[1,2-c]pyrimidin-5-yl)-1H-pyrazol-1-yl)propanenitrile]
Human Tyk2 kinase domain
  IC50: 10 to 100 nM
JAK1
  IC50: > 1000 nM
JAK2
  IC50: 100 to 1000 nM
JAK3
  IC50: 100 to 1000 nM

## Cc1ncc(-c2cc3nccn3c(-c3cnn(C(CC#N)C4CC4)c3)n2)s1 (centres unmarked) [Example 48]
Human Tyk2 kinase domain
  IC50: 10 to 100 nM
JAK1
  IC50: 100 to 1000 nM
JAK2
  IC50: 10 to 100 nM
JAK3
  IC50: 100 to 1000 nM

## N#CCC(C1CC1)n1cc(-c2nc(-c3cnn(C4CCOCC4)c3)cc3nccn23)cn1 (centres unmarked) [Example 36, 3-cyclopropyl-3-(4-(7-(1-(tetrahydro-2H-pyran-4-yl)-1H-pyrazol-4-yl)imidazo[1,2-c]pyrimidin-5-yl)-1H-pyrazol-1-yl)propanenitrile]
Human Tyk2 kinase domain
  IC50: < 10 nM
JAK1
  IC50: 100 to 1000 nM
JAK2
  IC50: 10 to 100 nM
JAK3
  IC50: 100 to 1000 nM

## Cn1cc(-c2cc3nccn3c(-c3cnn(C4(CC#N)CN(CC#N)C4)c3)n2)cn1 [Example 73, 2,2′-(3-(4-(7-(1-methyl-1H-pyrazol-4-yl)imidazo[1,2-c]pyrimidin-5-yl)-1H-pyrazol-1-yl)azetidine-1,3-diyl)diacetonitrile]
Human Tyk2 kinase domain
  IC50: < 10 nM
JAK1
  IC50: 100 to 1000 nM
JAK2
  IC50: 10 to 100 nM
JAK3
  IC50: > 1000 nM

## CC(=O)N1CC(CC#N)(n2cc(-c3nc(-c4cnn(C)c4)cc4nccn34)cn2)C1 [Example 63, 2-(1-Acetyl-3-(4-(7-(1-methyl-1H-pyrazol-4-yl)imidazo[1,2-c]pyrimidin-5-yl)-1H-pyrazol-1-yl)azetidin-3-yl)acetonitrile]
Human Tyk2 kinase domain
  IC50: 100 to 1000 nM
JAK1
  IC50: > 1000 nM
JAK2
  IC50: > 1000 nM
JAK3
  IC50: > 1000 nM

## N#CCC1(n2cc(-c3nc(-c4cnn(C5CCC5)c4)cc4nccn34)cn2)CN(CC(F)(F)F)C1 [Example 103, 2-(3-(4-(7-(1-Cyclobutyl-1H-pyrazol-4-yl)imidazo[1,2-c]pyrimidin-5-yl)-1H-pyrazol-1-yl)-1-(2,2,2-trifluoroethyl)azetidin-3-yl)acetonitrile]
Human Tyk2 kinase domain
  IC50: < 10 nM
JAK1
  IC50: 10 to 100 nM
JAK2
  IC50: 10 to 100 nM
JAK3
  IC50: 100 to 1000 nM

## COc1ccc(-c2cc3nccn3c(-c3cnn(C4(CC#N)CN(S(=O)(=O)C5CC5)C4)c3)n2)cc1 [Example 159, 2-(1-(cyclopropylsulfonyl)-3-(4-(7-(4-methoxyphenyl)imidazo[1,2-c]pyrimidin-5-yl)-1H-pyrazol-1-yl)azetidin-3-yl)acetonitrile]
Human Tyk2 kinase domain
  IC50: < 10 nM
JAK1
  IC50: 10 to 100 nM
JAK2
  IC50: 10 to 100 nM
JAK3
  IC50: > 1000 nM

## CN1CCN(c2ccc(-c3cc4nccn4c(-c4cnn(C5(CC#N)CN(S(=O)(=O)C(F)(F)F)C5)c4)n3)cc2)CC1 [Example 138, 2-(3-(4-(7-(4-(4-methylpiperazin-1-yl)phenyl)imidazo[1,2-c]pyrimidin-5-yl)-1H-pyrazol-1-yl)-1-(trifluoromethylsulfonyl)azetidin-3-yl)acetonitrile]
Human Tyk2 kinase domain
  IC50: < 10 nM
JAK1
  IC50: 10 to 100 nM
JAK2
  IC50: 10 to 100 nM
JAK3
  IC50: 100 to 1000 nM

## N#CCC1(n2cc(-c3nc(-c4cnn(C5COC5)c4)cc4nccn34)cn2)CN(CC(F)(F)F)C1 [Example 105, 2-(3-(4-(7-(1-(Oxetan-3-yl)-1H-pyrazol-4-yl)imidazo[1,2-c]pyrimidin-5-yl)-1H-pyrazol-1-yl)-1-(2,2,2-trifluoroethyl)azetidin-3-yl)acetonitrile]
Human Tyk2 kinase domain
  IC50: < 10 nM
JAK1
  IC50: 100 to 1000 nM
JAK2
  IC50: 10 to 100 nM
JAK3
  IC50: > 1000 nM

## Cc1cc(-c2cc3nccn3c(-c3cnn(C(CC#N)C4CC4)c3)n2)ccn1 (centres unmarked) [Example 50, 3-cyclopropyl-3-(4-(7-(2-methylpyridin-4-yl)imidazo[1,2-c]pyrimidin-5-yl)-1H-pyrazol-1-yl)propanenitrile]
Human Tyk2 kinase domain
  IC50: 10 to 100 nM
JAK1
  IC50: 100 to 1000 nM
JAK2
  IC50: 100 to 1000 nM
JAK3
  IC50: > 1000 nM
